The record followed here is US10273257B2, “Cancer cell-containing composition” (KING FAHD UNIVERSITY OF PETROLEUM AND MINERALS, priority 2016, dated 2019).

Each structure is given as a SMILES string. Values joined by “and” are separate entries in the source; they are usually repeats but may differ in a detail not shown here. Equal entries are not always repeated.

The subject of one test is MDA-MB231 cells. Description: MTT assay for anticancer activity, MDA-MB231 cells. The settings on record: MDA-MB231 breast cancer cells, 3-day exposure protocol. Format: cell-based, human. The procedure: (§1) Human breast cancer cells (MDA-MB231, MCF-7) were grown in Dulbecco's modified Eagle's medium (DMEM) supplemented with 10% fetal bovine serum (FBS) and 1% penicillin (10,000 units) with streptomycin (10 mg) in a 74 cm^2 flask and incubated until 80% confluence was obtained in a humidified environment of 5% CO2-95% air at 37° C.
(§2) Cancer cells were seeded and maintained in quadruplicate in a 96-well tissue culture plate at 5×10^3 cells per well in 150 μl of the same medium. The cancer cells were incubated for 24 hours before the treatment. All compounds were dissolved in 50% DMSO. Therefore, DMSO was used as a negative control. Complexes 1-5 and cisplatin (positive control) at 0.01 μM, 0.05 μM, 0.1 μM, 1 μM, 5 μM, 10 μM, and 50 μM concentrations were prepared in DMEM. The final DMSO concentration, in each well, was less than 0.1%.
(§3) The cancer cells were treated with the synthesized compounds 1-5 and cisplatin and then incubated for […]. The medium from the wells was discarded and 100 μL of DMEM containing MTT (3-(4,5-dimethylthiazol-2-yl)-2,5-diphenyltetrazolium bromide) (5 mg/mL) was added to the wells. The cells were incubated in a CO2 incubator at 37° C. in the dark for 4 h. After incubation, a purple colored formazan (an artificial chromogenic dye, a product of the reduction of water […] tetrazolium salts, such as MTT, by dehydrogenases and reductases) was produced by the cells and appeared as dark crystals in the bottom of the wells. The medium from each well was discarded carefully to avoid disruption of the monolayer. 100 μL of isopropanol was added in each well. The solution was thoroughly mixed in the wells to dissolve the formazan crystals which ultimately results into a purple solution. The absorbance of the 96-well plate was taken at 570 nm with Mithras^2LB943 against a blank (e.g. unreduced MTT in isopropanol). All data presented are mean t standard deviation.
(§4) The in vitro cytotoxic effect of mixed ligand gold(I) complexes 1-5 against MDA-MB231 and MCF-7 were studied using the MTT assay. The in vitro cytotoxic activity depends on the exposure time and the concentrations of the complexes. For that reason, different concentrations of the complexes and a 3-day exposure protocol to determine the IC50 values for all five complexes and cisplatin were used.

For a further test, the system named is MCF-7 cells. Description: MTT assay for anticancer activity, MCF-7 cells. The settings on record: MCF-7 breast cancer cells, 3-day exposure protocol. Format: cell-based, human. On the procedure: as §1, §2, §3, §4
For a further test, the system named is CT-DNA. As to the kind of experiment: Fluorescence emission titration with CT-DNA (Scatchard). Type of test: binding, calf. Particulars: complex 1.3×10^−4 M, excitation 275 nm, Tris-HCl/NaCl buffer, mean standard deviations ±0.07. On the procedure:
Fluorescence experiments were carried out at a constant concentration of the complexes with increasing CT-DNA concentrations. The binding constant, K, of the gold(I) complexes was determined from Scatchard eqs. (2) and (3) by employing emission titration (Liu, D. G.; Liao, P. J.; Fang, Z. Y.; Huang, S. S.; Sheng, L. G.; Yu, Q. R. Interaction of bis(ethylene)tin(bis(salicylidene)ethylenediamine) with DNA. Anal. Sci. 2002, 18 391-395; and Healy, F. E. Quantitative determination of DNA-ligand binding using fluorescence spectroscopy. J. Chem. Educ. 2007, 84, 1304-1307, each incorporated herein by reference in their entirety). CF=CT(I/Io−P)(1−P) (2) r/CF=K(n−r) (3) where CF is the free probe (i.e. free metal complex) concentration, CT is the total concentration of the probe added, I and Io are fluorescence intensities in the presence and absence of CT-DNA, respectively, r denotes a ratio of CB (CB=CT−CF) to the DNA concentration, i.e., the bound probe concentration to the DNA concentration, K is the binding constant, “n” is the binding site number, and P is the ratio of the observed fluorescence quantum yield of the bound probe to that of the free probe. The value P was obtained as the intercept by extrapolating from a plot of I/Io vs. 1/[DNA].
The fluorescence emission titration of complexes 1-5 was carried out in order to understand the nature of binding mode of these complexes with CT-DNA. This method is highly sensitive, reproducible, and accurate. In the absence of CT-DNA, all complexes 1-5 (concentration=1.3×10^−4 M) emitted strong luminescence when excited at 275 nm in Tris-HCl/NaCl buffer with an emission maximum appearing at 340 nm. However, the subsequent addition of CT-DNA from 0.067-0.5×10^−4 M caused a gradual enhancement in the fluorescence intensity of the complexes with no apparent change in the shape and position of the emission bands (FIGS. 10A-10E), which is indicative of a strong interaction of the Au(I) drug entities with CT DNA. The hydrophobic molecular structure of CT DNA could be responsible for enhancing the fluorescence quantum yield of complexes, leading to the higher fluorescence intensity with increasing concentration of CT DNA. In addition, energy transfer from CT-DNA to metal complexes could also induce fluorescence enhancement (Arjmand, F.; Jamsheera, A.; Afzal, M.; S. Tabassum, S. Enantiomeric Specificity of Biologically Significant Cu(II) and Zn(II) Chromone Complexes Towards DNA. Chirality. 2012, 24, 977-986, Tabassum, S.; Yadav, S.; Arjmand, F. Synthesis and mechanistic insight of glycosylated Cu^II/Ni^II—Sn2^IV heterobimetallic DNA binding agents: Validation of a specific Cu^II—Sn2^IV chemotherapeutic agent for human leukemic cell line K-562. J. Organomet. Chem. 2013, 745-746, 226-234, incorporated herein by reference in its entirety).

For test [1], the system named is EB-DNA system (CT DNA treated with EB). Description: Ethidium bromide displacement fluorescence quenching (Stern-Volmer). The settings on record: EB-bound CT DNA, emission at 585-590 nm. Format: binding, calf. On the procedure:
Luminescence titrations involving quenching experiments were conducted by adding increasing concentration of the complexes to a fixed concentration of EB-DNA system. The Tris-HCl buffer was used as a blank to make preliminary adjustments. The Stern-Volmer quenching constant, Ksv was obtained from the following equation (Lakowiez, R. J.; Webber, G. Quenching of fluorescence by oxygen. Probe for structural fluctuations in macromolecules. Biochem. 1973, 12, 4161-4170, incorporated herein by reference in its entirety). I0/I=1+KSV·r (4) where r is the ratio of total concentration of complex to that of DNA, and Io and I are the fluorescence intensities of EB in the absence and presence of complex.
A reliable method for studying the binding of molecules to nucleic acids is the fluorescence quenching method. Ethidium bromide (EB) is a planar cationic dye which is widely used as a sensitive fluorescence probe for native DNA. EB emits intense fluorescent light in the presence of DNA due to its strong intercalation between the adjacent DNA base pairs. The displacement technique is based on the decrease of fluorescence resulting from the displacement of EB from a DNA sequence by a quencher, and the quenching is due to the reduction of the number of binding sites on the DNA that are available to the EB (Ramachandran. E.; Raja, S. D.; Bhuvanesh, P. S. N.; Natarajan, K. Mixed ligand palladium(II) complexes of 6-methoxy-2-oxo-1,2-dihydroquinoline-3-carbaldehyde 4N-substituted thiosemicarbazones with triphenylphosphine co-ligand: Synthesis, crystal structure and biological properties. Dalton Trans. 2012, 41 13308-13323, incorporated herein by reference in its entirety). […] From the above data, it is clear that 4 replaces EB more effectively than other complexes, and this observation agreed with the results obtained from electronic absorption studies.

`CC[P+](CC)(CC)[Au-][S]C(=S)N(C)C` [Complex 2, (Et)3PAu(S2CN{Me}2)]: the IC50 with MDA-MB231 cells came to 0.055 µM; in the test on MCF-7 cells, 0.0064 µM. Besides, the “Scatchard binding constant K” value with CT-DNA was determined as 35000 M⁻¹. Also, in test [1], the “Stern-Volmer quenching constant KSV” value amounted to 0.34.
Turning to `CCN(CC)C(=S)[S][Au-][P+](CC)(CC)CC` [Complex 4, (Et)3PAu(S2CN{Et}2)], the IC50 in the test on MDA-MB231 cells is 0.044 µM; in the test on MCF-7 cells it was 0.0053 µM. The “Scatchard binding constant K” value in the test with CT-DNA was determined as 66000 M⁻¹. Moreover, the “Stern-Volmer quenching constant KSV” value in test [1] was 0.91.
Regarding `N.N.[Cl][Pt][Cl]` [Cisplatin, reference compound], the IC50 with MDA-MB231 cells was determined as 25.8 µM; with MCF-7 cells, 0.0059 µM.
Consider `CCN(CC)C(=S)[S][Au-][P+](C)(C)C` [Complex 3, (Me)3PAu(S2CN{Et}2)], for which the IC50 stood at 0.043 µM in the test on MDA-MB231 cells and 0.0088 µM in the test with MCF-7 cells. Besides, in the test with CT-DNA, the “Scatchard binding constant K” value amounted to 57000 M⁻¹. Further, in test [1], the “Stern-Volmer quenching constant KSV” value came to 0.67.
Consider `CC(C)[P+]([Au-][S]C(=S)N(C)C)(C(C)C)C(C)C` [Complex 5, (i-Pr)3PAu(S2CN{Me}2)], for which the IC50 is 0.7 µM in the test on MDA-MB231 cells; 0.0078 µM and 0.0079 µM in the test on MCF-7 cells. In the test on CT-DNA, the “Scatchard binding constant K” value amounted to 19000 M⁻¹. Moreover, in test [1], the “Stern-Volmer quenching constant KSV” value amounted to 0.10.
Consider `CN(C)C(=S)[S][Au-][P+](C)(C)C` [Complex 1, (Me)3PAu(S2CN{Me}2)], for which the IC50 with MDA-MB231 cells was found to be 0.044 µM; in the test with MCF-7 cells, 0.0078 µM. For the same compound, in the test with CT-DNA, the “Scatchard binding constant K” value was found to be 28000 M⁻¹. The “Stern-Volmer quenching constant KSV” value in test [1] came to 0.19.
